# Measured values published in PubChem BioAssay AID248 (DTP/NCI, 2004).
# Several values for one entry are separate records, joined by “and”; a condition that tells them apart may be missing. Equal values may be shown once. Toxic doses and inconclusive results are not listed. Peptide text beside a SMILES is read from it. * marks the point of attachment. Boc = CC(C)(C)OC(=O)*
# Tested on: L1210 leukemia ip in BDF1 mice, survival T/C
# Assay: NCI In Vivo Anticancer Drug Screen. Data for tumor model L1210 Leukemia (intraperitoneal) in B6D2F1 (BDF1) mice
# Conditions: endpoint: mean survival time, higher = longer survival
# How it was run: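 Each compound was tested against a transplantable tumor grown in mice. The endpoint was survival, with treated animals benchmarked against vehicle controls as a simple ratio.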
# [1] = dose: 100.0 mg/kg/injection, schedule: Q04DX003 (ip), vehicle: saline with Tween-80
# [2] = dose: 200.0 mg/kg/injection, schedule: Q04DX003 (ip), vehicle: saline with Tween-80
# [3] = dose: 400.0 mg/kg/injection, schedule: Q04DX003 (ip), vehicle: saline with Tween-80
# [4] = dose: 100.0 mg/kg/injection, schedule: Q04DX003 (ip), vehicle: saline
# [5] = dose: 200.0 mg/kg/injection, schedule: Q04DX003 (ip), vehicle: saline
# [6] = dose: 100.0 mg/kg/injection, schedule: Q01DX001 (ip), vehicle: saline
# [7] = dose: 100.0 mg/kg/injection, schedule: Q01DX009 (ip), vehicle: saline
# [8] = dose: 200.0 mg/kg/injection, schedule: Q01DX001 (ip), vehicle: saline
# [9] = dose: 200.0 mg/kg/injection, schedule: Q01DX009 (ip), vehicle: saline
# [10] = dose: 400.0 mg/kg/injection, schedule: Q01DX001 (ip), vehicle: saline
# [11] = dose: 400.0 mg/kg/injection, schedule: Q01DX009 (ip), vehicle: saline
# [12] = dose: 400.0 mg/kg/injection, schedule: Q04DX003 (ip), vehicle: saline
# [13] = dose: 100.0 mg/kg/injection, schedule: Q01DX009 (ip), vehicle: Klucel (hydroxypropylcellulose) (HPC)
# [14] = dose: 200.0 mg/kg/injection, schedule: Q01DX009 (ip), vehicle: Klucel (hydroxypropylcellulose) (HPC)
# [15] = dose: 400.0 mg/kg/injection, schedule: Q01DX009 (ip), vehicle: Klucel (hydroxypropylcellulose) (HPC)
# [16] = dose: 100.0 mg/kg/injection, schedule: Q01DX009 (ip), vehicle: saline with Tween-80
# [17] = dose: 200.0 mg/kg/injection, schedule: Q01DX009 (ip), vehicle: saline with Tween-80
# [18] = dose: 400.0 mg/kg/injection, schedule: Q01DX009 (ip), vehicle: saline with Tween-80
# [19] = dose: 50.0 mg/kg/injection, schedule: Q01DX009 (ip), vehicle: saline with Tween-80
smiles,measurement,setting,value
CC(=O)Nc1ccc2scnc2c1,T/C,[1],112 % of control
same,T/C,[2],112 % of control
same,T/C,[3],105 % of control
C=C(Cl)CSC(=S)N(CC)CC,T/C,"dose: 50.0 mg/kg/injection, schedule: Q01DX009 (ip), vehicle: saline sonified",94 % of control
same,T/C,"dose: 100.0 mg/kg/injection, schedule: Q01DX009 (ip), vehicle: saline sonified",94 % of control
same,T/C,[4],105 % of control
same,T/C,"dose: 200.0 mg/kg/injection, schedule: Q01DX009 (ip), vehicle: saline sonified",105 % of control
same,T/C,[5],102 % of control
CCC(COS(=O)(=O)c1ccc(C)cc1)[N+](=O)[O-] (stereo not drawn),T/C,"dose: 25.0 mg/kg/injection, schedule: Q04DX003 (ip), vehicle: Klucel (hydroxypropylcellulose) (HPC)",112 % of control
same,T/C,"dose: 50.0 mg/kg/injection, schedule: Q04DX003 (ip), vehicle: Klucel (hydroxypropylcellulose) (HPC)",96 % of control
same,T/C,"dose: 100.0 mg/kg/injection, schedule: Q04DX003 (ip), vehicle: Klucel (hydroxypropylcellulose) (HPC)",86 % of control
NC(N)=NCCCC(N)C(=O)O (stereo not drawn),T/C,"dose: 25.0 mg/kg/injection, schedule: Q04DX002 (ip), vehicle: saline",97 % of control
same,T/C,"dose: 50.0 mg/kg/injection, schedule: Q04DX002 (ip), vehicle: saline",113 % of control
same,T/C,[6],97 % of control
same,T/C,[7],119 % of control
same,T/C,"dose: 100.0 mg/kg/injection, schedule: Q04DX002 (ip), vehicle: saline",103 % of control and 97 % of control
same,T/C,[4],102 % of control and 94 % of control
same,T/C,[8],100 % of control
same,T/C,[9],95 % of control
same,T/C,"dose: 200.0 mg/kg/injection, schedule: Q04DX002 (ip), vehicle: saline",94 % of control
same,T/C,[5],105 % of control and 90 % of control
same,T/C,[10],103 % of control
same,T/C,[11],97 % of control
same,T/C,"dose: 400.0 mg/kg/injection, schedule: Q04DX002 (ip), vehicle: saline",94 % of control
same,T/C,[12],109 % of control and 97 % of control
CCCCOP(=O)(Cc1ccccc1)Oc1ccccc1 (stereo not drawn),T/C,[13],95 % of control
same,T/C,[14],97 % of control
same,T/C,[15],105 % of control
Cc1ccc(C(c2ccc(C)cc2)C(Cl)Cl)cc1,T/C,[16],96 % of control
same,T/C,[17],109 % of control
same,T/C,[18],107 % of control
COc1coc(CO)cc1=O,T/C,[19],94 % of control
same,T/C,[16],97 % of control
O=C1C=C(S(=O)(=O)c2ccccc2)C(=O)c2ccccc21,T/C,"dose: 75.0 mg/kg/injection, schedule: Q01DX001 (ip), vehicle: other",93 % of control
same,T/C,"dose: 150.0 mg/kg/injection, schedule: Q01DX001 (ip), vehicle: other",98 % of control
COC(=O)CNC(=O)C(CC(C)C)NC(=O)C(CC(C)C)NC(=O)OC(C)(C)C (stereo not drawn) (Boc-Leu-Leu-Gly-OMe; configuration not given here),T/C,"dose: 75.0 mg/kg/injection, schedule: Q01DX001 (ip), vehicle: saline",106 % of control
same,T/C,"dose: 150.0 mg/kg/injection, schedule: Q01DX001 (ip), vehicle: saline",98 % of control
same,T/C,"dose: 300.0 mg/kg/injection, schedule: Q01DX001 (ip), vehicle: saline",98 % of control
CC(=O)N1CCOC12CCN(Cc1ccccc1)CC2,T/C,"dose: 25.0 mg/kg/injection, schedule: Q01DX009 (ip), vehicle: saline with Tween-80",92 % of control
same,T/C,[19],98 % of control
same,T/C,[16],88 % of control
same,T/C,[1],100 % of control
CC[n+]1ccccc1-c1ccc(NC(=O)c2ccc(C(=O)Nc3ccc(-c4ccccn4)cc3)cc2)cc1,T/C,"dose: 0.75 mg/kg/injection, schedule: Q01DX Z (ip), vehicle: saline",120 % of control
same,T/C,"dose: 2.6 mg/kg/injection, schedule: Q01DX Z (ip), vehicle: saline",194 % of control and 213 % of control
same,T/C,"dose: 2.9 mg/kg/injection, schedule: Q01DX001 (ip), vehicle: saline",116 % of control
same,T/C,"dose: 4.0 mg/kg/injection, schedule: Q01DX Z (ip), vehicle: saline",176 % of control
same,T/C,"dose: 4.4 mg/kg/injection, schedule: Q01DX001 (ip), vehicle: saline",124 % of control
same,T/C,"dose: 6.0 mg/kg/injection, schedule: Q01DX Z (ip), vehicle: saline",170 % of control
same,T/C,"dose: 7.0 mg/kg/injection, schedule: Q01DX Z (oral), vehicle: saline",103 % of control
same,T/C,"dose: 14.0 mg/kg/injection, schedule: Q01DX Z (ip), vehicle: saline",100 % of control
same,T/C,"dose: 15.0 mg/kg/injection, schedule: Q01DX Z (oral), vehicle: saline",100 % of control
same,T/C,"dose: 20.0 mg/kg/injection, schedule: Q01DX001 (ip), vehicle: saline",164 % of control
same,T/C,"dose: 22.0 mg/kg/injection, schedule: Q01DX Z (ip), vehicle: saline",102 % of control
same,T/C,"dose: 30.0 mg/kg/injection, schedule: Q01DX Z (oral), vehicle: saline",102 % of control
same,T/C,"dose: 35.0 mg/kg/injection, schedule: Q01DX Z (ip), vehicle: saline",88 % of control
same,T/C,"dose: 40.0 mg/kg/injection, schedule: Q01DX001 (ip), vehicle: saline",153 % of control and 191 % of control
C1=C\CCCC/C=C/CC/1,T/C,"dose: 50.0 mg/kg/injection, schedule: Q01DX001 (ip), vehicle: saline",103 % of control
same,T/C,[6],92 % of control
same,T/C,[8],101 % of control
same,T/C,[10],90 % of control
COc1ccc(NC(=O)Nc2cc([N+](=O)[O-])ccc2C)cc1[N+](=O)[O-],T/C,[13],98 % of control
same,T/C,[14],96 % of control
same,T/C,[15],104 % of control
CCOC(=O)c1ccc(NC(=O)N(C)N=O)cc1,T/C,"dose: 75.0 mg/kg/injection, schedule: Q01DX001 (ip), vehicle: carboxymethylcellulose (CMC)",121 % of control
CN(C)C(=O)Nc1cccc(OC(=O)NC2CCCCCCC2)c1,T/C,[1],91 % of control
same,T/C,[2],100 % of control
same,T/C,[3],96 % of control
CCOC(=O)C(C)NC(=O)C(CSC(c1ccccc1)(c1ccccc1)c1ccccc1)NC(c1ccccc1)(c1ccccc1)c1ccccc1 (stereo not drawn),T/C,"dose: 25.0 mg/kg/injection, schedule: Q01DX009 (ip), vehicle: saline",98 % of control
same,T/C,"dose: 50.0 mg/kg/injection, schedule: Q01DX009 (ip), vehicle: saline",103 % of control
same,T/C,[7],92 % of control
same,T/C,[9],93 % of control
same,T/C,[11],98 % of control
NC(=S)N/N=C(/Cc1ccccc1)CC(O)(C(F)(F)F)C(F)(F)F,T/C,"dose: 50.0 mg/kg/injection, schedule: Q01DX009 (ip), vehicle: gum acacia",92 % of control
same,T/C,"dose: 100.0 mg/kg/injection, schedule: Q01DX009 (ip), vehicle: gum acacia",91 % of control
same,T/C,"dose: 100.0 mg/kg/injection, schedule: Q04DX003 (ip), vehicle: gum acacia",94 % of control
same,T/C,"dose: 200.0 mg/kg/injection, schedule: Q04DX003 (ip), vehicle: gum acacia",105 % of control
O=S(=O)(Cc1ncc2cnccn12)c1ccccc1,T/C,[4],95 % of control
same,T/C,[5],103 % of control
same,T/C,[12],104 % of control
NC(=O)C1OC(CO)C(O)C1O (stereo not drawn),T/C,[1],105 % of control
same,T/C,[2],94 % of control
same,T/C,[3],94 % of control
NC(=O)N/N=C1\CCCC(CCC(=O)O)C1 (stereo not drawn),T/C,"dose: 75.0 mg/kg/injection, schedule: Q01DX009 (ip), vehicle: other",101 % of control
same,T/C,[6],89 % of control
same,T/C,"dose: 150.0 mg/kg/injection, schedule: Q01DX009 (ip), vehicle: other",93 % of control
same,T/C,[8],108 % of control
same,T/C,"dose: 300.0 mg/kg/injection, schedule: Q01DX009 (ip), vehicle: other",94 % of control
same,T/C,[10],100 % of control
O=S(=O)(Nc1ccccc1)c1ccccc1CC(O)(c1ccccc1)c1ccccc1,T/C,"dose: 100.0 mg/kg/injection, schedule: Q01DX001 (ip), vehicle: steriod suspending solution",95 % of control
same,T/C,"dose: 200.0 mg/kg/injection, schedule: Q01DX001 (ip), vehicle: steriod suspending solution",93 % of control
same,T/C,"dose: 400.0 mg/kg/injection, schedule: Q01DX001 (ip), vehicle: steriod suspending solution",87 % of control
C=CCn1c(=S)[nH]c2ccccc2c1=O,T/C,[1],93 % of control
same,T/C,[17],91 % of control
same,T/C,[2],94 % of control
same,T/C,[18],89 % of control
same,T/C,[3],96 % of control
O=C(O)C(=O)c1ccc(O)cc1O,T/C,[6],111 % of control
same,T/C,[8],103 % of control
